Results taken from patent US4383990A, “Antiviral agents, their preparation and use” (priority 1980, dated 1983).
≈ marks a conversion by molar mass, not a printed value. Blank lines part the entries; values can stand above or below the compound they belong to.

What was measured:
[1] = test system: Herpes simplex type 1 virus (HFEM strain); assay: Plaque reduction of Herpes simplex type 1 virus (HFEM strain) in Vero cells; type: cell-based, Herpes simplex virus type 1; conditions: for ED50 (concentration reducing the plaque number at 50%): HSV-1 strain HFEM, 8640 min; for ED50 (concentration reducing the plaque number at 50%) / IC50: Vero cells; for IC50: Human alphaherpesvirus 1, 144 h, HSV-1 HFEM strain, 37° C., 6 days
Text: (§1) The same method was used to determine the ED50 (concentration reducing the plaque number at 50%) of the E/Z mixture against the KOS and SK16 strains of Herpes simplex virus type 1 and the ED50 of the E/Z mixture and the separated isomers ("peak 1" and "peak 2") against the HFEM strain.

[2] = african green monkey, vero cells
[3] = Anti-host cell activity: growth of Vero cells; type: cell-based, African Green Monkey; conditions: monkey, vero cells; Vero cell growth versus antiviral activity; read-out: Therapeutic ratio
Procedure: (§2) Vero cells seeded at low density were grown in the presence of E/Z-5-(2-chloro-1,2-difluorovinyl)-2'-deoxyuridine for 72 h. During this time the cells doubled in number approximately once every 24 h. […] 5-(2-Chloro-1,2-difluorovinyl)-2'-deoxyuridine thus has a therapeutic ratio of >5.

Vero cells = assay: Anti-host cell activity: growth of Vero cells; type: cell-based, African Green Monkey; conditions: Vero cells, 72 h
Procedure: as §2

[4] = test system: Herpes simplex virus type 1 (SCl6 strain); assay: Plaque reduction of Herpes simplex virus type 1, SCl6 strain; type: cell-based; conditions: Human alphaherpesvirus 1, 144 h; HSV-1 strain SCl6, Vero cells; read-out: ED50 (concentration reducing the plaque number at 50%)
Text: as §1

[5] = test system: human diploid fibroblast MRC-5 cell line; assay: Anti-host cell activity: proliferation of human diploid fibroblast MRC-5 cells; type: cell-based; conditions: even at 200 μg/ml
[6] = test system: Herpes simplex virus type 1 (KOS strain); assay: Plaque reduction of Herpes simplex virus type 1, KOS strain; type: cell-based; conditions: Human alphaherpesvirus 1, 144 h; HSV-1 strain KOS, Vero cells; read-out: ED50 (concentration reducing the plaque number at 50%)
Text: as §1

SMILES: O=c1[nH]c(=O)n([C@H]2C[C@H](O)[C@@H](CO)O2)cc1C(F)=C(F)Cl (single isomer, unassigned) [Peak 1]
- ED50 (concentration reducing the plaque number at 50%) [1]: > 100 µg/mL

SMILES: O=c1[nH]c(=O)n([C@H]2C[C@H](O)[C@@H](CO)O2)cc1C(F)=C(F)Cl (single isomer, unassigned) [Peak 2]
- ED50 (concentration reducing the plaque number at 50%) [1]: 24 ± 6 µg/mL (≈ 73.9 µM)
- Activity of the separated isomers in the screens ([1]; in words, at the levels tested): Only one of the isomers is active at the levels tested

SMILES: O=c1[nH]c(=O)n([C@H]2C[C@H](O)[C@@H](CO)O2)cc1I [5-iodo-2'-deoxyuridine, reference compound]
- IC50 [1]: 3 µg/mL (≈ 8.47 µM)
- MCC at 144 h [2]: > 100 µg/mL

- IC50 [1]: 14 µg/mL (≈ 43.1 µM)
- EC50 [4]: 21 µg/mL (≈ 64.7 µM)
- MCC at 144 h [2]: > 200 µg/mL
- EC50 [6]: 20 µg/mL (≈ 61.6 µM)
SMILES: O=c1[nH]c(=O)n([C@H]2C[C@H](O)[C@@H](CO)O2)cc1C(F)=C(F)Cl [E/Z-5-(1,2-Difluoro-2-chlorovinyl)-2'-deoxyuridine]
- ED50 (concentration reducing the plaque number at 50%) ([1]; listed as E/Z): 24 ± 3 µg/mL (≈ 73.9 µM)
- selectivity ratio [3]: > 5
- Cell doubling time in the presence of compound (Vero cells): ~24 h
- Depression of cell growth (Vero cells; 100 μg/ml): only slight depression of cell growth was observed
- Effect on cell proliferation [5]: little effect on cell proliferation
